# According to US8962660B2 (Bristol-Myers Squibb Company, priority 2013, dated 2015):
# Structures can show the parent of a compound that is named as a salt.
# Biological target: T1, human GPR120 (Homo sapiens, UniProt Q5NUL3)
# T1 construct: expressed in transfected cells; host or cells: CHOA12 cells
# T1 sequence (Q5NUL3 1-361): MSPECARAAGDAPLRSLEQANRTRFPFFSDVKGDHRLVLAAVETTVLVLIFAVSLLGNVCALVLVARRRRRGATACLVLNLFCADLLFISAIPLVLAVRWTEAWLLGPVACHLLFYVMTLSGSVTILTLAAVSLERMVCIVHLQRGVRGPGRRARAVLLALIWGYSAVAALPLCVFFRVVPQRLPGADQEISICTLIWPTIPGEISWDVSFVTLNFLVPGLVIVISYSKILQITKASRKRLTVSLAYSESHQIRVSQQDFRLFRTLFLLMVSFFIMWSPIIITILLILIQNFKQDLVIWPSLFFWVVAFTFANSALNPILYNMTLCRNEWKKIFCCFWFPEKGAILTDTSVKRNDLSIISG
# Assay: GPR120 pERK AlphaScreen SureFire assay (human)
# Type: cell-based
# Settings: CHO cells stably transfected with short form of human GPR120
# Excerpt: GPR120 activity was monitored by measuring phosphorylation of ERK (pERK), since G protein receptors are known to activate the ERK signaling cascade either directly and/or through recruitment of arrestin that serves as a scaffold for downstream signaling events.
# GPR120 pERK AlphaScreen SureFire Assay
# The human and mouse GPR120-mediated intracellular phosphorylated ERK assays were established using CHOA12 cells stably transfected with the short form of human or mouse GPR120 receptor. Cells were cultured in growth medium consisting of F-12 media (Invitrogen Cat. #11765) with 5% Charcoal/Dextran FBS (Invitrogen Cat. #12676-029), 500 μg/mL GENETICIN® (Life Technologies Cat. #10131-027) and 250 μg/mL Zeocin (Invitrogen Cat. #R250-01). Cells were cryo preserved at a concentration of 2×10^7 cells/mL, in 90% Charcoal/Dextran FBS and 10% DMSO, and frozen in liquid nitrogen at a low passage number.
# For the pERK assay, 2×10^7 cells/mL cryopreserved human and mouse cells were thawed rapidly in a 37° C. water bath and added to a T-225 flask containing 50 mL growth medium. The flasks were placed in a tissue culture incubator overnight (37° C., 5% CO2). The next day, cells were harvested with trypsin (Gibco Cat. #25300-054), resuspended in serum-containing growth medium and counted using a Cellometer and volume adjusted to a concentration of 0.6×10^6cells/mL. Cells were plated into 384-well clear bottom tissue culture plates (BD Cat. #353962) at 50 μL/well, for a density of 30,000 cells/well using a MULTIDROP® and incubated for 16-18 hours (overnight) at 37° C. with 5% CO2. The next day, cells were serum starved in 30 μL of F-12 media without any serum or antibiotics for 2 hours at 37° C.
# Test compounds were 3-fold, 11-point serially diluted in DMSO in a REMP assay plate (Matrix Cat. #4307) by Tecan and 5 μL was transferred into an ECHO source plate (LABCYTE® Cat. #LC-0200). Cells were then stimulated with 50 nL of compound dilutions using ECHO liquid handler for 7 minutes at 37° C. Compounds ranged from final assay concentrations of 33.33 μM to 0.56 nM.
# The media was then dumped and cells lysed with 20 μL of 1× Lysis buffer from the AlphaScreen SureFire Phospho-ERK 1/2 Kit (Perkin Elmer Cat. #6760617M). The lysis buffer was diluted 5-fold with water before use. The plate was agitated on a shaker for 10 minutes after which 2 μL was transferred into a 384-well white proxiplate (Perkin Elmer Cat. #6008289). The SureFire assay reagent mix was prepared by mixing 60 parts Reaction Buffer, 10 parts Activation Buffer, 1 part Donor Beads, 1 part Acceptor Beads (Perkin Elmer Cat. #TGRES10K). 3.5 μL/well of this reagent mix was manually added to the proxiplate with a multichannel pipettor. Plates were spun down at 1000 rpm for 2 minutes, followed by light-protected incubation at room temperature for 2 hours. The plates were read on the Alpha-technology compatible Envision multilabel plate reader using AlphaScreen protocol according to manufacturer's specifications. The agonist effect of compounds was expressed as 100×(average sample−average blank)/(average total−average blank) where sample is the luminescence activity in the presence of test compound, blank is equal to the luminescence activity in the presence of DMSO control and the total is signal induced by 50 μM linolenic acid as reference compound. Activation data for the test compound over a range of concentrations was plotted as percentage activation of the test compound (100%=maximum response). After correcting for background, EC50 values were determined The EC50 is defined as the concentration of test compound which produces 50% of the maximal response and was quantified using the 4 parameter logistic equation to fit the data.
# The human and mouse GPR120-mediated intracellular phosphorylated ERK assays were also established using CHO-K1 cells stably transfected with the short form of human or mouse GPR120 receptor. […]
row,EC50 [µM],Compound
1,0.64,"O=C(O)CCCCC12CCC(c3cccc(OC4CCCCO4)c3)(CC1)OC2 (centres unmarked) [Example 10, 5-(1-(3-(Tetrahydro-2H-pyran-2-yloxy)phenyl)-2-oxabicyclo[2.2.2]octan-4-yl)pentanoic acid]"
2,0.1,"O=C(O)/C=C/CCC12CCC(c3cccc(Oc4ccccc4)c3)(CC1)OC2 [Example 11, (E)-5-(1-(3-Phenoxyphenyl)-2-oxabicyclo[2.2.2]octan-4-yl)pent-2-enoic acid]"
3,0.98,"O=C(O)COCCCC12CCC(c3cccc(Oc4ccccc4)c3)(CC1)OC2 [Example 12, 2-(3-(1-(3-Phenoxyphenyl)-2-oxabicyclo[2.2.2]octan-4-yl)propoxy)acetic acid]"
4,0.16,"O=C(O)CC1CC1CC12CCC(c3cccc(Oc4ccccc4)c3)(CC1)OC2 (stereo not drawn) [Example 16, 2-(2-((1-(3-Phenoxyphenyl)-2-oxabicyclo[2.2.2]octan-4-yl)methyl)cyclopropyl)acetic acid (trans)]"
5,1.98,"C=C(C)COc1cccc(C23CCC(CCOCC(=O)O)(CC2)CO3)c1 [Example 19, 2-(2-(1-(3-(2-Methylallyloxy)phenyl)-2-oxabicyclo[2.2.2]octan-4-yl)ethoxy)acetic acid]"
6,0.65,"CC(C)=COc1cccc(C23CCC(CCOCC(=O)O)(CC2)CO3)c1 [Example 20, 2-(2-(1-(3-(2-Methylprop-1-enyloxy)phenyl)-2-oxabicyclo[2.2.2]octan-4-yl)ethoxy)acetic acid]"
7,6.86,"O=C(O)COCCC12CCC(c3cccc(Oc4cccnc4)c3)(CC1)OC2 [Example 21, 2-(2-(1-(3-(Pyridin-3-yloxy)phenyl)-2-oxabicyclo[2.2.2]octan-4-yl)ethoxy)acetic acid, TFA salt]"
8,0.38,"COc1cccc(Oc2cccc(C34CCC(CCOCC(=O)O)(CC3)CO4)c2)c1 [Example 22, 2-(2-(1-(3-(3-Methoxyphenoxy)phenyl)-2-oxabicyclo[2.2.2]octan-4-yl)ethoxy)acetic acid]"
9,0.31,"O=C(O)COCCC12CCC(c3cc(F)cc(Oc4ccccc4)c3)(CC1)OC2 [Example 23, 2-(2-(1-(3-Fluoro-5-phenoxyphenyl)-2-oxabicyclo[2.2.2]octan-4-yl)ethoxy)acetic acid]"
10,0.8,"O=C(O)COCCC12CCC(c3cccc(C4=CCCC4)c3)(CC1)OC2 [Example 24, 2-(2-(1-(3-Cyclopentenylphenyl)-2-oxabicyclo[2.2.2]octan-4-yl)ethoxy)acetic acid]"
11,0.59,"O=C(CCCCC12CCC(c3cccc(Oc4ccccc4)c3)(CC1)OC2)NS(=O)(=O)c1ccccc1 [Example 25, 5-(1-(3-Phenoxyphenyl)-2-oxabicyclo[2.2.2]octan-4-yl)-N-(phenylsulfonyl)pentanamide]"
12,0.17,"CS(=O)(=O)NC(=O)CCCCC12CCC(c3cccc(Oc4ccccc4)c3)(CC1)OC2 [Example 26, N-(Methylsulfonyl)-5-(1-(3-phenoxyphenyl)-2-oxabicyclo[2.2.2]octan-4-yl)pentanamide]"
13,5.02,"O=C(O)CNC(=O)CC12CCC(c3cccc(Oc4ccccc4)c3)(CC1)OC2 [Example 27, 2-(2-(1-(3-Phenoxyphenyl)-2-oxabicyclo[2.2.2]octan-4-yl)acetamido)acetic acid]"
14,1.98,"O=C(O)COC(=O)NCC12CCC(c3cccc(Oc4ccccc4)c3)(CC1)OC2 [Example 28, 2-((1-(3-Phenoxyphenyl)-2-oxabicyclo[2.2.2]octan-4-yl)methylcarbamoyloxy)acetic acid]"
15,1.57,"O=C(O)CCS(=O)(=O)CC12CCC(c3cccc(Oc4ccccc4)c3)(CC1)OC2 [Example 29, 3-((1-(3-Phenoxyphenyl)-2-oxabicyclo[2.2.2]octan-4-yl)methylsulfonyl)propanoic acid]"
16,0.14,"O=C(O)CCOCC12CCC(c3cccc(Oc4ccccc4)c3)(CC1)CO2 [Example 30, 3-((4-(3-Phenoxyphenyl)-2-oxabicyclo[2.2.2]octan-1-yl)methoxy)propanoic acid]"
17,0.28,"O=C(O)COCCC12CCC(c3cccc(Oc4ccccc4)c3)(CC1)CO2 [Example 31, 2-(2-(4-(3-Phenoxyphenyl)-2-oxabicyclo[2.2.2]octan-1-yl)ethoxy)acetic acid]"
18,1.9,"COC(CCC12CCC(c3cccc(Oc4ccccc4)c3)(CC1)OC2)CC(=O)O (centres unmarked) [Example 33, 3-Methoxy-5-(1-(3-phenoxyphenyl)-2-oxabicyclo[2.2.2]octan-4-yl)pentanoic acid]"
19,0.07,"O=C(O)C/C=C/CC12CCC(c3cccc(Oc4ccccc4)c3)(CC1)OC2 [Example 34, (E)-5-(1-(3-Phenoxyphenyl)-2-oxabicyclo[2.2.2]octan-4-yl)pent-3-enoic acid]"
20,0.66,"O=C(O)/C=C\CCC12CCC(c3cccc(Oc4ccccc4)c3)(CC1)OC2 [Example 35, (Z)-5-(1-(3-Phenoxyphenyl)-2-oxabicyclo[2.2.2]octan-4-yl)pent-2-enoic acid]"
21,1.14,"O=C(O)COCCC12CCC(c3ccccc3Oc3ccccc3)(CC1)OC2 [Example 37, 2-(2-(1-(2-Phenoxyphenyl)-2-oxabicyclo[2.2.2]octan-4-yl)ethoxy)acetic acid]"
22,0.2,"O=C(O)COCCC12CCC(c3cccc(Oc4ccc(F)cc4)c3)(CC1)OC2 [Example 39, 2-(2-(1-(3-(4-fluorophenoxy)phenyl)-2-oxabicyclo[2.2.2]octan-4-yl)ethoxy) acetic acid]"
23,0.3,"O=C(O)COCCC12CCC(c3cccc(Oc4ccc(Cl)cc4)c3)(CC1)OC2 [Example 40, 2-(2-(1-(3-(4-chlorophenoxy)phenyl)-2-oxabicyclo[2.2.2]octan-4-yl)ethoxy) acetic acid]"
24,0.2,"Cc1ccc(Oc2cccc(C34CCC(CCOCC(=O)O)(CC3)CO4)c2)cc1 [Example 41, 2-(2-(1-(3-(p-tolyloxy)phenyl)-2-oxabicyclo [2.2.2]octan-4-yl)ethoxy)acetic acid]"
25,0.37,"COc1ccc(Oc2cccc(C34CCC(CCOCC(=O)O)(CC3)CO4)c2)cc1 [Example 42, 2-(2-(1-(3-(4-methoxyphenoxy)phenyl)-2-oxabicyclo [2.2.2]octan-4-yl)ethoxy)acetic acid]"
26,0.55,"Cc1cccc(Oc2cccc(C34CCC(CCOCC(=O)O)(CC3)CO4)c2)c1 [Example 43, 2-(2-(1-(3-(m-tolyloxy)phenyl)-2-oxabicyclo [2.2.2]octan-4-yl)ethoxy)acetic acid]"
27,0.45,"O=C(O)COCCC12CCC(c3cccc(Oc4cccc(Cl)c4)c3)(CC1)OC2 [Example 44, 2-(2-(1-(3-(3-chlorophenoxy)phenyl)-2-oxabicyclo[2.2.2]octan-4-yl)ethoxy) acetic acid]"

row,Compound,EC50 [µM]
1,"CC(C)COc1cccc(C23CCC(CCOCC(=O)O)(CC2)CO3)c1 [Example 9, 2-(2-(1-(3-Isobutoxyphenyl)-2-oxabicyclo[2.2.2]octan-4-yl)ethoxy)acetic acid]",1.28
2,"CC(C)COc1cc(F)cc(C23CCC(CCOCC(=O)O)(CC2)CO3)c1 [Example 36, 2-(2-(1-(3-Fluoro-5-isobutoxyphenyl)-2-oxabicyclo[2.2.2]octan-4-yl)ethoxy)acetic acid]",0.72
